According to patent US5190934A, “P-subsituted propane-phosphinic acid compounds” (Ciba-Geigy Corporation, priority 1989, dated 1993):

System: "epileptic"-like discharges of pyramidal cells
Test: Penicilline-induced "epileptic" hippocampal slice preparation
Type: cell-based
Conditions: baclofen at 6 μM
Method: The GABAB antagonists of the present invention interact at the GABAB receptor with IC50 values starting from about 10^-7 M (moles/liter) in rat brain cortex membranes. […] The antagonism against baclofen has also been shown in in vitro electrophysiological models, such as the penicilline-induced "epileptic" hippocampal slice preparation, where baclofen, at a concentration of 6 μM inhibits "epileptic"-like discharges of pyramidal cells. The compounds of the invention antagonise the effects of baclofen at concentrations from approximately 10 to approximately 100 μM. In vivo, antagonism has been shown by ionophoresis of baclofen on rat cerebral cortex, and systemic application of antagonists in doses of 10-100 mg/kg. The muscle relaxant effects of baclofen measured in the rotarod model are also antagonized at doses of about 30 mg/kg i.p.

NCC(CC(=O)O)c1ccc(Cl)cc1 (stereo not shown) [baclofen]
effect on "epileptic"-like discharges of pyramidal cells: inhibits
